Consider 29 compounds from US5674867A, “Indolocarbazole derivatives and therapeutic method for stimulating megakaicyocyte production” (Kyowa Hakko Kogyo Co., Ltd., priority 1992, dated 1997).

Each structure is given as a SMILES string.

The assay relates to bone marrow cells (megakaryocyte colony formation). Briefly: Megakaryocyte colony formation-stimulating activity (ACHE-stained colonies, bone marrow cells with IL-3). The conditions noted are these: with IL-3 100 U/ml, 7 days. Format: cell-based, BALB/c mouse. The protocol:
An eight-weeks-old BALB/c mouse was killed. Its femurs and cervical vertebrae were taken out, and both end sections thereof were cut off. Bone marrow cells were collected from the pieces cut off from the femurs and cervical vertebrae using a syringe containing IMDM (430-2200EA prepared by Gibco Co.), and then blown into a test tube. The test tube was allowed to stand for 5 minutes, and the supernatant was collected with a pipet. To a reaction mixture comprising the bone marrow cells (50,000 cells), bovine serum albumin (2%: A4508 made by Sigma Co.), transferrin (600 μg/ml 652202 made by Boehringer Mannheim Co.), IL-3 (100 U/ml), cholesterol (16 μg/ml: 036-0641 made by Wako Co.) and agar (0.6%: 0142-02 made by Difco Laboratories) were separately added the test compounds at various concentrations, and 1 ml each of the mixtures was put into a 35-mm dish (Lux Co.), followed by incubation under the conditions of 37° C., 5% CO2 and a humidity of 95% or more for 7 days. Separately, IL-3 alone was added to the bone marrow cells to prepare a control, whereas a positive control was prepared by adding 200 U/ml IL-6 to the above-mentioned reaction mixture. After the incubation was completed, the agar was dried over a filter paper (1001-055 made by Whatman Co.) and then fixed with 2.5% glutaraldehyde, followed by acetylcholinesterase staining (ACHE staining).
The ACHE staining was carried out by the method described below.
ACHE staining: To each sample was added a solution comprising 0.67 mg/ml acetylthiocholine iodide, 2.94 mg/ml sodium citrate, 7.5 mg/ml copper (II) sulfate and 1.65 mg/ml potassium ferricyanide, and the mixture was allowed to stand at room temperature in the dark for 4-6 hours.
A group of 4 or more megakaryocytes which were stained reddish brown was regarded as a colony, and the number of colonies per dish was calculated using a microscope. The results are shown in Table 2 as relative values to the control.

As to `COC(=O)C1(O)CC2OC1(C)n1c3ccccc3c3c4c(c5c6cc(S(=O)(=O)N7CCN(C)CC7)ccc6n2c5c31)C(=O)NC4` (centres unmarked) [Compound I-11], the “Relative value (megakaryocyte colonies, control = 100)” value (from here on “Relative value”) runs as follows: (0.1 nM) 88.4; (1 nM) 95; (10 nM) 116.

Regarding `COC(=O)C1(OC)CC2OC1(C)n1c3ccccc3c3c4c(c5c6ccccc6n2c5c31)C(=O)NC4` (centres unmarked) [Compound I-36], the “Relative value” value by setting is: (0.1 nM) 130; (1 nM) 172; (10 nM) 173.

For the compound `CNC1CC2OC(C)(C1OC)n1c3ccccc3c3c4c(c5c6ccccc6n2c5c31)C(=O)N(N)C4=O` (centres unmarked) [Compound I-3], the “Relative value” value by setting is: (0.01 nM) 98.8; (1 nM) 127.

Consider `CC12OC(CC1O)n1c3ccccc3c3c4c(c5c6ccccc6n2c5c31)CNC4=O` (centres unmarked) [Compound I-46], for which the “Relative value” value (0.1 nM) is given as 97; the “Relative value” value (1 nM) is 131; the “Relative value” value (10 nM) is on record as 112.

As to `CCCCOC(=O)C1(O)CC2OC1(C)n1c3ccccc3c3c4c(c5c6ccccc6n2c5c31)C(=O)NC4` (centres unmarked) [Compound I-15], the “Relative value” value runs as follows: (0.1 nM) 120; (1 nM) 121; (10 nM) 132.

As to `CNC1CC2OC(C)(C1OC)n1c3ccccc3c3c4c(c5c6ccccc6n2c5c31)C(=O)N(C)C4` (centres unmarked) [Compound I-2], the “Relative value” value was found to be 125 (0.01 nM) and 168 (1 nM, 10080 min, 0.001 µM).

As to `CCCOc1ccc2c(c1)c1c3c(c4c5ccccc5n5c4c1n2C1CC(OC)(C(=O)OC)C5(C)O1)CN(C)C3=O` (centres unmarked) [Compound I-38], the “Relative value” value came to 112 (0.1 nM), 111 (1 nM) and 136 (10 nM).

Consider `COC(=O)C1(OC(C)=O)CC2OC1(C)n1c3ccccc3c3c4c(c5c6cc(C(C)=O)ccc6n2c5c31)C(=O)N(C(C)=O)C4` (centres unmarked) [Compound I-37], for which the “Relative value” value (0.1 nM) is reported as 82; the “Relative value” value (1 nM) came to 124; the “Relative value” value (10 nM) is listed as 114.

For `COC(=O)C1(OC)CC2OC1(C)n1c3ccccc3c3c4c(c5c6ccccc6n2c5c31)C(=O)N(C)C4` (centres unmarked) [Compound I-7], the “Relative value” value reads like this: (0.01 nM) 93; (1 nM) 101; (100 nM) 108.

Take `CCCCCCOC(=O)C1(O)CC2OC1(C)n1c3ccccc3c3c4c(c5c6ccccc6n2c5c31)C(=O)NC4` (centres unmarked) [Compound I-5]: the “Relative value” value (0.01 nM) was found to be 112; the “Relative value” value (1 nM) is on record as 104; the “Relative value” value (100 nM) is listed as 103.

As for `CCCOc1ccc2c(c1)c1c3c(c4c5cc(OCCC)ccc5n5c4c1n2C1CC(O)(C(=O)OC)C5(C)O1)CNC3=O` (centres unmarked) [Compound I-12], the “Relative value” value reads like this: (0.1 nM) 133; (1 nM) 113; (10 nM) 122.

For `CCCCCCN(C)C1CC2OC(C)(C1OC)n1c3ccccc3c3c4c(c5c6ccccc6n2c5c31)C(=O)NC4` (centres unmarked) [Compound I-27], the “Relative value” value (0.1 nM) amounted to 76; the “Relative value” value (1 nM) came out at 109; the “Relative value” value (10 nM) was found to be 97.

As for `CNC1CC2OC(C)(C1OC)n1c3ccccc3c3c4c(c5c6ccccc6n2c5c31)C(=O)N(C)C4O` (single isomer, unassigned) [Compound I-23a], the “Relative value” value (0.1 nM) is recorded as 114.

In the case of `CCCOc1ccc2c(c1)c1c3c(c4c5ccccc5n5c4c1n2C1CC(O)(C(=O)OC)C5(C)O1)CNC3=O` (centres unmarked) [Compound I-6], the “Relative value” value worked out at 112 (0.01 nM), 132 (1 nM) and 117 (100 nM).

Regarding `COC(=O)C1(O)CC2OC1(C)n1c3ccccc3c3c4c(c5c6ccccc6n2c5c31)C(=O)N(Cc1ccccc1)C4=O` (centres unmarked) [Compound I-13], the “Relative value” value (0.1 nM) is reported as 100; the “Relative value” value (1 nM) was 113; the “Relative value” value (10 nM) is reported as 125.

On to `CNC1CC2OC(C)(C1OC)n1c3ccccc3c3c4c(c5c6cc(C=O)ccc6n2c5c31)C(=O)N(C)C4` (centres unmarked) [Compound I-50], for which the “Relative value” value by setting is: (1 nM) 118; (10 nM) 128.

As for `CCCCOC(=O)C1(O)CC2OC1(C)n1c3ccccc3c3c4c(c5c6ccccc6n2c5c31)C(=O)NC4=O` (centres unmarked) [Compound I-43], the “Relative value” value is reported as 81 (0.1 nM), 118 (1 nM) and 87 (10 nM).

`CCCCCCN1Cc2c(c3c4ccccc4n4c3c3c2c2ccccc2n3C2(C)OC4CC(NC)C2OC)C1=O` (centres unmarked) [Compound I-20]: the “Relative value” value turned out to be 107 (0.1 nM), 131 (1 nM) and 144 (10 nM).

Consider `CCCN(C)C1CC2OC(C)(C1OC)n1c3ccccc3c3c4c(c5c6ccccc6n2c5c31)C(=O)N(C)C4` (centres unmarked) [Compound I-24], for which the “Relative value” value by setting is: (0.1 nM) 88; (1 nM) 87; (10 nM) 109.

Take `CCSC1NC(=O)c2c1c1c3ccccc3n3c1c1c2c2ccccc2n1C1CC(O)(C(=O)OC)C3(C)O1` (centres unmarked) [Compound I-14]: the “Relative value” value is listed as 118 (0.1 nM), 115 (1 nM) and 116 (10 nM).

As to `CNC1CC2OC(C)(C1OC)n1c3ccccc3c3c4c(c5c6ccccc6n2c5c31)C(=O)N(C)C4` (centres unmarked) [Compound I-22], the “Relative value” value by setting is: (0.1 nM) 116; (1 nM, 10080 min, 0.001 µM) 120; (10 nM) 100.

For the compound `COC(=O)C1(OC(C)=O)CC2OC1(C)n1c3ccccc3c3c4c(c5c6ccccc6n2c5c31)C(=O)N(C(C)=O)C4` (centres unmarked) [Compound I-8], the “Relative value” value turned out to be 95.6 (0.01 nM), 118 (1 nM) and 89.6 (100 nM).

Consider `CC(C)OC(=O)C1(O)CC2OC1(C)n1c3ccccc3c3c4c(c5c6ccccc6n2c5c31)C(=O)NC4` (centres unmarked) [Compound I-45], for which the “Relative value” value is recorded as 103 (0.1 nM), 143 (1 nM) and 100 (10 nM).

Consider `COC(=O)C1(O)CC2OC1(C)n1c3ccccc3c3c4c(c5c6ccccc6n2c5c31)C(=O)NC4O` (centres unmarked) [Compound I-4], for which the “Relative value” value by setting is: (0.01 nM) 94.3; (1 nM) 115.

As to `COC1C(N(C)C)CC2OC1(C)n1c3ccccc3c3c4c(c5c6ccccc6n2c5c31)C(=O)N(C)C4` (centres unmarked) [Compound I-49], the “Relative value” value stood at 122 (0.1 nM) and 128 (1 nM).

Take `CNC1CC2OC(C)(C1OC)n1c3ccccc3c3c4c(c5c6ccccc6n2c5c31)C(=O)N(Cc1ccccc1)C4` (centres unmarked) [Compound I-21]: the “Relative value” value amounted to 95 (0.1 nM), 105 (1 nM) and 97 (10 nM).

As to `CCCN1Cc2c(c3c4ccccc4n4c3c3c2c2ccccc2n3C2(C)OC4CC(NC)C2OC)C1=O` (centres unmarked) [Compound I-19], the “Relative value” value by setting is: (0.1 nM) 118; (1 nM) 94; (10 nM) 156.

In the case of `CNC1CC2OC(C)(C1OC)n1c3ccccc3c3c4c(c5c6ccccc6n2c5c31)C(=O)N(C)C4=O` (centres unmarked) [Compound I-9], the “Relative value” value is, setting by setting: (0.1 nM) 135; (1 nM) 117; (10 nM) 92.2.

As to `CNC1CC2OC(C)(C1OC)n1c3ccccc3c3c4c(c5c6cc(Br)ccc6n2c5c31)C(=O)NC4` (centres unmarked) [Compound I-29], the “Relative value” value by setting is: (0.1 nM) 90; (1 nM) 113; (10 nM) 112.
